For data set [1], the system named is Drosophila. Kind of data set: Innate immunity-regulating activity in Drosophila Dpt-lacZ larvae assessed as suppression of immune response by measuring DAP-type peptidoglycan-mediated Dpt-lacZ activation at 10 ug/ml incubated at 25 degC for 12 hrs by beta-galactosidase reporter gene assay. It counts as functional.
Data set [2] concerns Drosophila. Kind of data set: Cytotoxicity against Drosophila S2 assessed as reduction in cell viability at 0.1 to 100 ug/ml by WST8 dye based assay.
In data set [3] the test system is Drosophila. The experiment in a line: Innate immunity-regulating activity in Drosophila Dpt-lacZ larvae assessed as suppression of immune response by measuring DAP-type peptidoglycan-mediated Dpt-lacZ activation at 0.1 to 100 ug/ml incubated at 25 degC for 12 hrs by beta-galactosidase reporter gene assay. In kind it is functional, organism-based. In general terms: A reporter such as luciferase makes a cellular process visible.

The test system of data set [4] is Drosophila. The experiment in a line: Innate immunity-regulating activity in Drosophila Dpt-lacZ larvae assessed as suppression of immune response by measuring DAP-type peptidoglycan-mediated Dpt-lacZ activation at 1 ug/ml incubated at 25 degC for 12 hrs by beta-galactosidase reporter gene assay. In kind it is functional, organism-based.

This passage reports inhibition and Activity results from ChEMBL document CHEMBL3593213, “Isolation of a Cyclic Depsipetide, Aspergillicin F, and Synthesis of Aspergillicins with Innate Immune-Modulating Activity” (J Nat Prod, 2015).

For orientation: inhibition means the percentage by which the read-out fell short of the control.

Molecules are shown by their SMILES. Activity calls are given as the source filed them. The calls are words filed in the database; no cut-off is given here.

Take `CC[C@@H](C)[C@@H]1NC(=O)[C@H](Cc2ccc(OC)cc2)N(C)C(=O)[C@@H]2CCCN2C(=O)[C@@H]2CCCN2C(=O)[C@@H]([C@H](C)CC)NC(=O)[C@@H](NC(C)=O)[C@@H](C)OC1=O`: the inhibition at 10 µg/mL in the data set on Drosophila [1] stood at 37%. The Activity entry with Drosophila [2] is reported as “Non-toxic”. The inhibition result in the data set on Drosophila [3] was “Dose-dependent effect”.

On to `CC[C@@H](C)[C@H]1NC(=O)[C@@H](NC(C)=O)[C@@H](C)OC(=O)[C@H](C(C)C)NC(=O)[C@H](Cc2ccccc2)NC(=O)[C@@H]2CCCN2C(=O)[C@@H]2CCCN2C1=O`, for which, in the data set with Drosophila [1], the inhibition result was “inactive”.

On to `CC[C@@H](C)[C@H]1NC(=O)[C@@H](NC(C)=O)[C@@H](C)OC(=O)[C@H]([C@@H](C)CC)NC(=O)[C@H](Cc2ccc(OC)cc2)N(C)C(=O)[C@@H]2CCCN2C(=O)[C@@H]2CCCN2C1=O`, for which the inhibition entry in the data set with Drosophila [1] was “inactive”.

As to `COc1cc(O)c2c(c1)/C=C/C[C@H](O)[C@H](O)[C@@H](O)/C=C/C[C@H](C)OC2=O`, the inhibition result in the data set on Drosophila [4] was “Active”.

On to `CCC[C@H]1NC(=O)[C@@H](NC(C)=O)[C@@H](C)OC(=O)[C@H](C(C)C)NC(=O)[C@H](Cc2ccc(OC)cc2)N(C)C(=O)[C@@H]2CCCN2C(=O)[C@@H]2CCCN2C1=O`, for which the inhibition result in the data set on Drosophila [1] was “inactive”.

With `CC[C@@H](C)[C@H]1NC(=O)[C@@H](NC(C)=O)[C@@H](C)OC(=O)[C@H](C(C)C)NC(=O)[C@H](Cc2ccc(OC)cc2)N(C)C(=O)[C@@H]2CCCN2C(=O)[C@@H]2CCCN2C1=O`, the inhibition result in the data set on Drosophila [1] is “inactive”.

For the molecule `CC[C@@H](C)[C@H]1NC(=O)[C@@H](NC(C)=O)[C@@H](C)OC(=O)[C@H](C(C)C)NC(=O)[C@H](Cc2ccccc2)N(C)C(=O)[C@@H]2CCCN2C(=O)[C@@H]2CCCN2C1=O`, in the data set on Drosophila [1], the inhibition result is “inactive”.
